Data reported in US20250129430A1, “HIGH ATP-AFFINITY PROTEIN AS THERAPEUTIC TARGET FOR INTRACTABLE CANCER MOLECULAR SUBTYPES AND INHIBITOR THEREOF” (VeraVerse Co., Ltd., priority 2021, published 2025).

Columns and labels:
Format in all cases: cell-based, human
[1] = test system: non-SEM-type gastric cancer cell line; experiment: Cell viability drug screen, AUC summary over non-SEM-type lines; conditions: in the non-SEM-type gastric cancer cell line
[2] = test system: MKN45; experiment: Cell viability drug screen, 12-point dose-response AUC; conditions: MKN45 cells; 72 hours; 12-point dose-response
Summary of the method: (§1)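 Gastric cancer lines seeded 5×10^3 cells/well, dosed after 24 h with half-log 12-point compound dilutions (DMSO 0.5% control), then 72 h at 37 °C. Viability by luminescence, normalized to DMSO; AUC by trapezoidal method, averaged over repeats.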

[3] = test system: SNU216; experiment: as above; conditions: SNU216 cells; 72 hours; 12-point dose-response
Summary of the method: as §1

[4] = test system: SNU668; experiment: as above; conditions: SNU668 cells; 72 hours; 12-point dose-response
Summary of the method: (§2)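 Twelve half-log concentrations per compound were tested on gastric cancer cells with an EMT phenotype (5×10^3/well, dosed 24 h post-seeding). Viability after 72 h was quantified via luminescence relative to 0.5% DMSO, and repeats were averaged.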

[5] = test system: YCC2; experiment: as above; conditions: YCC2 cells; 72 hours; 12-point dose-response
Summary of the method: as §2

[6] = test system: SNU620; experiment: as above; conditions: SNU620 cells; 72 hours; 12-point dose-response
Summary of the method: as §2

[7] = test system: SNU484; experiment: as above; conditions: SNU484 cells; 72 hours; 12-point dose-response
Summary of the method: as §2

[8] = test system: AGS; experiment: as above; conditions: AGS cells; 72 hours; 12-point dose-response
Summary of the method: as §1

[9] = test system: SNU638; experiment: as above; conditions: SNU638 cells; 72 hours; 12-point dose-response
Summary of the method: as §2

[10] = test system: NCI_N87; experiment: as above; conditions: NCI_N87 cells; 72 hours; 12-point dose-response
Summary of the method: as §2

[11] = test system: MKN28; experiment: as above; conditions: MKN28 cells; 72 hours; 12-point dose-response
Summary of the method: as §2

[12] = test system: YCC3; experiment: as above; conditions: YCC3 cells; 72 hours; 12-point dose-response
Summary of the method: as §2

[13] = test system: YCC11; experiment: as above; conditions: YCC11 cells; 72 hours; 12-point dose-response
Summary of the method: as §2

[14] = test system: SNU1967; experiment: as above; conditions: SNU1967 cells; 72 hours; 12-point dose-response
Summary of the method: as §2

[15] = test system: NCC19; experiment: as above; conditions: NCC19 cells; 72 hours; 12-point dose-response
Summary of the method: as §2

[16] = test system: KATO3; experiment: as above; conditions: KATO3 cells; 72 hours; 12-point dose-response
Summary of the method: as §2

[17] = test system: SNU719; experiment: as above; conditions: SNU719 cells; 72 hours; 12-point dose-response
Summary of the method: as §1

[18] = test system: SNU1750; experiment: as above; conditions: SNU1750 cells; 72 hours; 12-point dose-response
Summary of the method: as §2

[19] = test system: NCC20; experiment: as above; conditions: NCC20 cells; 72 hours; 12-point dose-response
Summary of the method: as §2

[20] = test system: Hs746T; experiment: as above; conditions: Hs746T cells; 72 hours; 12-point dose-response
Summary of the method: as §2

[21] = test system: NCC24; experiment: as above; conditions: NCC24 cells; 72 hours; 12-point dose-response
Summary of the method: as §2

[22] = test system: SNU1; experiment: as above; conditions: SNU1 cells; 72 hours; 12-point dose-response
Summary of the method: as §2

[23] = test system: MKN1; experiment: as above; conditions: MKN1 cells; 72 hours; 12-point dose-response
Summary of the method: as §2

[24] = test system: SK4; experiment: as above; conditions: SK4 cells; 72 hours; 12-point dose-response
Summary of the method: as §2

[25] = test system: NCC59; experiment: as above; conditions: NCC59 cells; 72 hours; 12-point dose-response
Summary of the method: as §2

[26] = test system: MKN74; experiment: as above; conditions: MKN74 cells; 72 hours; 12-point dose-response
Summary of the method: as §1

[27] = test system: SNU601; experiment: as above; conditions: SNU601 cells; 72 hours; 12-point dose-response
Summary of the method: as §2

[28] = test system: OCUM1; experiment: as above; conditions: OCUM1 cells; 72 hours; 12-point dose-response
Summary of the method: as §2

[29] = test system: SNU16; experiment: as above; conditions: SNU16 cells; 72 hours; 12-point dose-response
Summary of the method: as §2

[30] = test system: FU97; experiment: as above; conditions: FU97 cells; 72 hours; 12-point dose-response
Summary of the method: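 Trapezoidal AUC of a 12-point, DMSO-normalized dose-response curve. Luminescent viability was measured after 72 h of exposure at 37° C to half-log serial dilutions (0.5% DMSO control), dosed 24 h after plating FU97 cells at 5×10^3 per well.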

[31] = test system: SEM-type gastric cancer cell line; experiment: Cell viability drug screen, AUC summary over SEM-type lines
Experimental: An FDA-approved small-molecule pharmacological compound (#L1300) and an anticancer compound for research (#L2000) were purchased from Selecckchem and a 10 mM solution was prepared in DMSO. A total of 1,345 compounds were tested the cell viability of the seven EMT gastric cancer cell lines.
Cells cultured for cell-based drug assay were inoculated into a 96-well white optical plate (Corning) at 5×10^3 cells per well. After 24 hours after inoculation, a 2.5 MJT (primary screen) or a half-log 12-serial diluent (secondary screen) of the pharmacological compound contained in DMSO is added to the cells with a robot using a BioMek FXp liquid processor (Beckman) to add to the cells at 50 mM. The final drug concentration in the 5 ns range and the DMSO specification control (0.5%) were calculated. The cells were then further incubated at 37° C. in a 5% CO2 incubator for 72 hours prior to measuring cell viability using the extra-GLO assay kit (Promega). The luminescent properties were measured after 15 min incubation at room temperature using a plate stacker equipped with a plate stacker. The normalized viability for the DMSO-based control was measured to generate a cell line-specific 12-point dose-response curve for each pharmacological compound, and then the area under the curve (AUC) was calculated using a trapezoidal method.

With COc1ncc(-c2ccc3nccc(-c4ccnnc4)c3c2)cc1NS(=O)(=O)c1ccc(F)cc1F [GSK2126458] the AUC value [1] was “high”, the “area under the viability curve (AUC), normalized” value (“area … normalized” below) [2] was 0.05353 and the “area … normalized” value [3] was −0.4775. The “area … normalized” value [4] was 1.587, the “area … normalized” value [5] was −0.9259 and the “area … normalized” value [6] was −0.7945. For the same molecule, the “area … normalized” value [7] was 0.4641, the “area … normalized” value [8] was −2.286 and the “area … normalized” value [9] was 0.9531. The “area … normalized” value [10] was −1.3463, the “area … normalized” value [11] was 0.15 and the “area … normalized” value [12] was 0.9745. For the same molecule, the “area … normalized” value [13] was −1.373, the “area … normalized” value [14] was 1.044 and the “area … normalized” value [15] was 0.4665. The “area … normalized” value [16] was 3.911, the “area … normalized” value [17] was 5.211 and the “area … normalized” value [18] was −0.5071. For the same molecule, the “area … normalized” value [19] was −1.107, the “area … normalized” value [20] was −0.063 and the “area … normalized” value [21] was −1.197. For the same molecule, the “area … normalized” value [22] was −0.6492, the “area … normalized” value [23] was −1.1278 and the “area … normalized” value [24] was −2.466. For the same molecule, the “area … normalized” value [25] was 2.2975, the “area … normalized” value [26] was 0 and the “area … normalized” value [27] was 0.1047. For the same molecule, the “area … normalized” value [28] was 1.227, the “area … normalized” value [29] was 0.6494 and the “area … normalized” value [30] was −1.393. For the same molecule, the “normalized viability AUC” value [31] was “negative”.
With Cc1cnc(NC(=O)Nc2cc(Br)c(C)cc2OC[C@@H]2CNCCO2)cn1 [LY2603618] the AUC value [1] was “high”, the “area … normalized” value [2] was −0.9472 and the “area … normalized” value [3] was 0.2462. The “area … normalized” value [4] was 0.1713, the “area … normalized” value [5] was 0.04045 and the “area … normalized” value [6] was 0. For the same molecule, the “area … normalized” value [7] was 0.3141, the “area … normalized” value [8] was −0.3593 and the “area … normalized” value [9] was −0.05048. The “area … normalized” value [10] was 0.8771, the “area … normalized” value [11] was −0.1902 and the “area … normalized” value [12] was 0.2305. For the same molecule, the “area … normalized” value [13] was −2.027, the “area … normalized” value [14] was −0.9616 and the “area … normalized” value [15] was 1.2209. The “area … normalized” value [16] was 1.256, the “area … normalized” value [17] was 2.404 and the “area … normalized” value [18] was −0.4819. The “area … normalized” value [19] was 0.01673, the “area … normalized” value [20] was −0.107 and the “area … normalized” value [21] was −1.445. For the same molecule, the “area … normalized” value [22] was −0.3399, the “area … normalized” value [23] was −1.023 and the “area … normalized” value [24] was −1.698. For the same molecule, the “area … normalized” value [25] was 0.9326, the “area … normalized” value [26] was −0.9084 and the “area … normalized” value [27] was 0.2367. The “area … normalized” value [28] was −0.6831, the “area … normalized” value [29] was 1.467 and the “area … normalized” value [30] was 0.7111. For the same molecule, the “normalized viability AUC” value [31] was “negative”.
